# Measured values as given in ChEMBL document CHEMBL4483862, “Open-source discovery of chemical leads for next-generation chemoprotective antimalarials” (2018).
# System: Plasmodium berghei
# Assay: Luciferase/luciferin-expressing antifolate-resistant parasites were used to infect a culture of HepG2 cells that were pre-incubated with compounds. Infected hepatocytes emit light due to the luciferase reaction. Assay results are presented as the percent inhibition of light emission compared to control. […]
# Type: functional
# Details: sporozoite; for IC50: read-out: LUCIFERASE INFECTION ASSAY - IC50; for IC90: read-out: LUCIFERASE INFECTION ASSAY - IC90
Structure (SMILES),IC50 [µM],IC90 [µM]
CCC1(c2ccc(F)cc2)NC(=O)N(CC(=O)Nc2ccc(-c3nc4ccc(C)cc4s3)cc2)C1=O (stereo not drawn),9.87,> 10
O=C(/C=C/c1ccc(N2CCCCC2)c([N+](=O)[O-])c1)c1ccc(O)cc1,9.61,> 10
CC(C)N(Cc1ccccc1)C(=S)NC(=O)C1(C)CC1(Cl)Cl (stereo not drawn),> 10,> 10
CCOC(=O)c1c(C)[nH]c(C)c1C(=O)COC(=O)c1c(OC)cccc1OC,> 10,> 10
CCc1cccc(CC)c1NC(=O)/C(C#N)=C/c1ccccc1C(F)(F)F,3.68,4.5
CCOCCCNC(=O)/C(C#N)=C/c1ccc(Cl)c([N+](=O)[O-])c1,5.19,9.95
OC(CNCCc1ccc(Cl)cc1Cl)COc1ccccc1 (stereo not drawn),> 10,> 10
CCc1cccc(NC(=O)C[n+]2c3n(c4ccc(C(F)(F)F)cc42)CCCCC3)c1,2.8,8.61
Cc1nc(NCc2ccco2)c2c(C)c(C)sc2n1,3.73,4.47
N#CCC(=O)NN1Cc2ccccc2C1=N,> 10,> 10
Cc1nn(-c2ccccc2)c(N2CCCC2)c1/C=N/O,> 10,> 10
Cc1nc(N/N=C/c2ccc(O)cc2)c2cnn(-c3ccccc3)c2n1,> 10,> 10
Cc1ccc(C23CC4CC(CC(C(=O)N5CCN(CCc6ccccc6)CC5)(C4)C2)C3)cc1,> 10,> 10
O=C(CNc1cccc(S(=O)(=O)N2CCOCC2)c1)N(C1CCCCC1)C1CCS(=O)(=O)C1 (stereo not drawn),> 10,> 10
COc1cc(/C=C/C(=O)OCC(=O)Nc2cc(Cl)cc(Cl)c2)cc(OC)c1OC,> 10,> 10
CCC(C)(C)c1ccc(Oc2ccc(NC(=O)CN3c4cccc5cccc(c45)S3(=O)=O)cc2)cc1,> 10,> 10
O=C(Nc1cc(C(F)(F)F)ccc1Cl)C(Sc1nnc(Cc2cccs2)n1CCc1ccccc1)c1ccccc1 (stereo not drawn),5.35,> 10
CCc1c(C#N)c(SCC(=O)c2cc(C)n(-c3ccccc3)c2C)nc2c1C(=O)CC(C)(C)C2,> 10,> 10
Cc1cccc(C)c1/N=c1\scc(-c2cccc(Cl)c2)n1/N=C/C1CC=CCC1 (stereo not drawn),> 10,> 10
Cc1cc(Br)ccc1NC(=O)CNC(=O)CCC(=O)N1CCC(c2ccccc2)=N1,> 10,> 10
CCOc1ccc(C2(O)C(C)N3C(=[N+]2c2ccc(OC)cc2)CCc2ccccc23)cc1 (stereo not drawn),> 10,> 10
C/C(=N\NC(=O)c1ccc(N/N=C(\C)c2ccccc2Br)cc1)c1ccccc1Br,> 10,> 10
Cc1ccc2c(c1)C1CN(C)CCC1N2C(=O)c1cc(-c2ccc(F)cc2)nc2ccccc12 (stereo not drawn),> 10,> 10
CCN(C(=O)CSc1nnc(SCC(=O)N(CC)C2CCCCC2)s1)C1CCCCC1,> 10,> 10
Cc1cc(C)c(S(=O)(=O)Nc2cc3c(C(=O)Nc4ccccc4)c(C)oc3c3ccccc23)c(C)c1,> 10,> 10
CCOc1ccc(S(=O)(=O)N2c3ccccc3C(C(N)=O)CC2C)cc1OCC (stereo not drawn),> 10,> 10
COc1ccc(-c2cc(C(=O)NNC(=S)NC3CC4CCC3C4)[nH]n2)cc1 (stereo not drawn),> 10,> 10

Structure (SMILES),IC50 [µM],IC90 [µM]
O=C(Cn1ncc(Cl)c(Cl)c1=O)NCCC(c1ccccc1)c1ccccc1,5.37,7.67
COc1ccc(C2NC(=O)NC(c3ccccc3)=C2c2nc3ccccc3s2)cc1OCc1ccccc1 (stereo not drawn),9.63,> 10
CN(C)c1nc(N)c2c(N)nc3c(cc(O)n3C(=O)NC34CC5CC(CC(C5)C3)C4)c2c1C#N,5.64,> 10
CCOc1ccc(C=C(c2nc3ccccc3s2)c2nc3ccccc3s2)c(O)c1,6.72,> 10
CC(C)C(C)NC(=O)CSc1nnc(CC2CCCC2)[nH]1 (stereo not drawn),> 10,> 10
O=C(N/N=C1/C(=O)c2cccc3cccc1c23)c1cccc(S(=O)(=O)N2CCCCC2)c1,> 10,> 10
C=CC/N=c1\scc(-c2ccc(Br)s2)n1/N=C/c1ccccc1[N+](=O)[O-],> 10,> 10
CSc1nc2nc(C)c(CCC(=O)N(CC(F)(F)F)C(C)C3CC3)c(C)n2n1 (stereo not drawn),0.994,1.24
CCOc1cc(/C=C/C(=O)c2ccc(C)cc2)cc(Br)c1OCC(=O)N(C)C,3.4,3.89
Cc1coc(C)c1C(=O)/C=C/c1ccc2cccnc2c1,2.51,2.69
COc1cc2c(cc1NC(=O)C1CCCN(S(=O)(=O)c3ccc(F)cc3)C1)oc1ccccc12 (stereo not drawn),> 10,> 10
Cc1[nH]c(=S)c(C#N)c2c1C1(C)CCC3C(CC=C4CC(O)CCC43C)C1C2 (stereo not drawn),> 10,> 10
CCOc1ccc(/C=C2\CCCC3C2=NN(C(=O)C2(S(=O)(=O)c4ccccc4)CC2)C3c2ccc(OCC)cc2)cc1 (stereo not drawn),5.63,> 10
CC(C)(C)c1ccc(-c2nnc(SCC(=O)N3CCc4ccccc4C3)n2Cc2ccccc2)cc1,> 10,> 10
Cc1c(C(=O)N/N=C/c2c3ccccc3c(Cl)c3ccccc23)nc2ccccn12,> 10,> 10
CCN(CC)c1ccc2cc(/C=N/NC(=O)C34CC5CC(CC(C5)C3)C4)c(=O)oc2c1,> 10,> 10
Cc1[nH]c2ccccc2c1/C=N/N(Cc1ccccc1)c1ccccc1,> 10,> 10
COc1ccc(/C=C2\CCCc3c2nc2ccccc2c3C(=O)OCc2cccc(C(F)(F)F)c2)cc1OC,> 10,> 10
CCCCCCCCNC(=O)/C(C#N)=C/c1ccc(C)cc1C,> 10,> 10
CNC(=S)Nc1ccc(-n2cnc3ccccc32)cc1,> 10,> 10
Cc1ccc(C(=O)c2c3c4sc5ccccc5n4c(-c4ccc(C)cc4)nc-3[n+](-c3ccccc3)c2O)cc1,> 10,> 10
CCOC(=O)c1c(C)[nH]c(N=Nc2ccc3c(c2)OCO3)c1C,9.43,> 10
O=C(/C=C/c1ccccc1[N+](=O)[O-])c1cccc(C(F)(F)F)c1,4.89,5.08
CCOC(=O)c1c(-c2ccccc2)oc2ccc(N(C(C)=O)S(=O)(=O)c3ccc4ccccc4c3)cc12,6.33,> 10
O=C(Cn1c(CN2CCCCC2)nc2ccccc2c1=O)Nc1ccccc1Oc1ccccc1,> 10,> 10
CC(C)(C)c1cc(N2Cc3ccccc3C2=N)cc(C(C)(C)C)c1,> 10,> 10
Cn1c(N)c(C(=O)COC(=O)c2c3c(nc4ccccc24)/C(=C/c2ccc(O)cc2)CCC3)c(=O)n(C)c1=O,2.66,6.45

Structure (SMILES),IC50 [µM],IC90 [µM]
CCOC(=O)/C(=N\Nc1cc(C(F)(F)F)ccc1Cl)N1CCN(C(c2ccccc2)c2ccccc2)CC1,4.97,> 10
CCOC(=O)/C(=N\Nc1sc(C(=O)OCC)c(C)c1C(=O)OCC)C(=O)c1ccccc1,7.51,9.2
COC(=O)c1occc1CSc1nc(NC(=O)c2ccccc2)c2c(C)c(C)oc2n1,> 10,> 10
Cc1ccc(C)c(S(=O)(=O)N(Cc2nnc(-c3ccc(Cl)cc3)o2)c2cccc(C(F)(F)F)c2)c1,> 10,> 10
O=C(Nc1sc2c(c1CN1CCN(C(=O)c3ccco3)CC1)CCCC2)c1ccccc1F,> 10,> 10
CN(c1ccccc1)S(=O)(=O)c1cccc(NC(=O)Nc2ccccc2[N+](=O)[O-])c1,> 10,> 10
COc1cc(OC)c(C(=O)/C=C/c2cnc(N3CCCC3)nc2)cc1Cl,7.4,> 10
O=C(CCSCc1cc(Cl)c2c(c1)OCO2)Nc1ccc(Cl)cc1F,> 10,> 10
COC(=O)c1ccccc1NC(=O)/C=C/c1ccc(N2CCCS2(=O)=O)cc1,2.97,6.74
CCc1c(C#N)c(SCC(=O)c2cc(C)n(-c3ccccc3F)c2C)nc2c1C(=O)CC(C)(C)C2,5.79,> 10
Cc1cc(=O)n(-c2ccc(C(F)(F)F)cc2[N+](=O)[O-])[nH]1,> 10,> 10
CN(C(=O)CCc1cc(C(C)(C)C)c(O)c(C(C)(C)C)c1)C1CCS(=O)(=O)C1 (stereo not drawn),> 10,> 10
COC(=O)c1ccc(/C=C/C(=O)OCC(=O)C(C#N)=C2Nc3ccccc3N2)cc1,> 10,> 10
Cc1cc(C)cc(NC(=O)C(NNC(=O)CC23CC4CC(CC(C4)C2)C3)c2ccccc2)c1 (stereo not drawn),> 10,> 10
Cc1cc(=O)n2nc(CSc3ncc(-c4ccccc4)n3-c3c(C)cccc3C)sc2n1,2.38,5.16
Cc1cc(C(=O)N(C(=O)NC2CCCCC2)C2CCCCC2)c(C)n1-c1ccccc1,1.12,8.67
COc1ccccc1C(=O)OC(c1ccc(NC(=O)c2ccc(OC(F)F)cc2)cc1)(C(F)(F)F)C(F)(F)F,3.51,4.33
CC(OC(=O)c1ccc(C(C)C)cc1)C(=O)Nc1sccc1C(N)=O (stereo not drawn),> 10,> 10
Cc1sc(NC(=O)c2ccco2)c(C(c2cccc(C(F)(F)F)c2)N2CC(C)CC(C)C2)c1C (stereo not drawn),6.14,> 10
Cc1ccc(S(=O)(=O)c2c(C)nn(C(C)(C)C)c2OC(=O)c2cccc([N+](=O)[O-])c2)cc1,> 10,> 10
CC(C)CCn1c(Sc2ccc3nnnn3n2)nc2scc(-c3cccs3)c2c1=O,> 10,> 10
Cc1cnc(NC(=O)c2ccc(C3SCCS3)cc2)s1,0.273,> 10
O=C(Nc1ccc(-c2nc3ccccc3[nH]2)cc1)c1cnn(-c2ccccc2)c1C1CC1,3.31,3.59
CC(Nc1ccc(C(F)(F)F)cc1[N+](=O)[O-])C(=O)Nc1ccccc1C(=O)Nc1cccc(Cl)c1 (stereo not drawn),> 10,> 10
C=CCn1c(SCc2c(C(=O)OCC)sc(N)c2C#N)nnc1-c1ccc(Cl)cc1Cl,> 10,> 10
